Biological target: T1, mouse Tas2r105 (Mus musculus, UniProt Q9JKT4)
T1 construct: expressed in transfected cells; host or cells: HEK293T-Gα16gust44
T1 sequence (Q9JKT4 1-300): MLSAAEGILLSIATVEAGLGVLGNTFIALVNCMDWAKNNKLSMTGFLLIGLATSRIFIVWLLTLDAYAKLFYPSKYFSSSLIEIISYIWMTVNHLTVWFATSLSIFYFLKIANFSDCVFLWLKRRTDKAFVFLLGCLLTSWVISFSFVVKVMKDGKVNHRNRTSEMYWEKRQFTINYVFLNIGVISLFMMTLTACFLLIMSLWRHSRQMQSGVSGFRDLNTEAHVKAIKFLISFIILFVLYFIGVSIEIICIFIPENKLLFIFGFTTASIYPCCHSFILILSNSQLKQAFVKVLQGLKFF
Test: Calcium imaging assay (FLIPR), HEK293T-Gα16gust44 cells transfected with mouse Tas2r105
Format: cell-based
Conditions: for Δ F/F: Tas2r105
Procedure: This set of bile acids was chosen because of their commercial availability in high purities, their diversity within the class of bile acids and their previous detection and quantitation in human blood. Stock solutions were prepared in DMSO.
As basal growth medium for the HEK293T-Gα16gust44 cell line[17],[59] served Dulbecco’s modified eagle medium (DMEM) (Thermo Fisher Scientific, Darmstadt, Germany) supplemented with 10 % fetal bovine serum (Sigma-Aldrich, Steinheim, Germany), 2 mM L-glutamine (Sigma-Aldrich, Steinheim, Germany), 100 units/ml penicillin (Sigma Aldrich, Steinheim, Germany) and 100 µg/ml streptomycin (Sigma Aldrich, Steinheim, Germany). Growth conditions were 37 °C, 5 % CO2 and saturated air-humidity[60].
HEK293T-Gα16gust44 cells were seeded on poly-D-lysine (10 µg/ml) coated 96-well plates to reach a confluence of 40-60 % the next day. For transient transfection 150 ng of plasmid DNA containing the receptor of interest and 0.3 µl lipofectamine 2000 (Thermo Fisher Scientific, Darmstadt, Germany) per well were used and transfection took place according to the manual of lipofectamine 2000. […] The empty vector DNA (mock) was transfected as negative control[14],[41].
Cells were loaded using the calcium-sensitive fluorescent dye Fluo-4-AM (Abcam, Cambridge, Great Britain) in the presence of 2.5 mM probenecid (Sigma-Aldrich, Steinheim, Germany) the day after transfection[13],[41]. 1 h after loading, cells were washed with C1 buffer using a BioTek Cell Washer, incubated in the dark for half an hour and washed again. For automated agonist application and measurement of fluorescence changes, a FLIPR^TETRA device (Molecular Devices, San José, United States) was used. Viability of cells was tested by application of 100 nM Somatostatin 14 (Bachem, Bubendorf, Switzerland)[42].
Measured data were negative control corrected by subtracting the signal of the mock-transfected cells and exported to Microsoft Excel using the FLIPR software ScreenWorks 4.2. In Microsoft Excel software, standardization of maximum fluorescence intensities to the basal fluorescence and normalization to the buffer-only control was done to calculate the relative fluorescence changes (ΔF/F).
Initial screening experiments performed in duplicate wells were confirmed by at least one replication and representative traces were selected for display. All dose-response relationships were determined by three independent experiments (biological replicates) performed in duplicates (technical replicates). Threshold concentrations, defined as lowest substance concentrations leading to statistically significant elevated fluorescence changes in receptor-transfected cells compared with empty vector-transfected cells, were determined using SigmaPlot with Student’s t-test to evaluate statistical significance (p < 0.01).

C[C@H](CCC(=O)NCC(=O)O)[C@H]1CC[C@H]2[C@@H]3[C@H](O)C[C@@H]4C[C@H](O)CC[C@]4(C)[C@H]3C[C@H](O)[C@]12C [Glycocholic Acid, glycocholic acid]
Δ F/F (conc. 0,01 mM): 0.004381
Δ F/F (conc. 0,1 mM): 0.01642
Δ F/F (conc. 0,03 mM): 0.01245
Δ F/F (conc. 0,3 mM): 0.0274
Δ F/F (conc. 0,001 mM): 0.003279
Δ F/F (conc. 1 mM): 0.07136
Δ F/F (conc. 0,003 mM): -0.003104
RLU (Time 0 s): 0 RLU
RLU (Time 2 s): -27.0595 RLU
RLU (Time 4 s): -18.6603 RLU
RLU (Time 6 s): -18.2123 RLU
RLU (Time 8 s): -47.8563 RLU
RLU (Time 12 s): -34.2819 RLU
RLU (Time 14 s): -34.7557 RLU
RLU (Time 16 s): -23.6188 RLU
RLU (Time 18 s): -16.5747 RLU
RLU (Time 18.781 s): -3.899 RLU
RLU (Time 20.781 s): -20.1413 RLU
RLU (Time 22.781 s): -4.143 RLU
RLU (Time 24.781 s): 15.6549 RLU
RLU (Time 26.781 s): 13.7683 RLU
RLU (Time 28.781 s): 17.1414 RLU
RLU (Time 30.781 s): 33.1924 RLU
RLU (Time 32.781 s): 40.0682 RLU
RLU (Time 34.781 s): 38.6999 RLU
RLU (Time 36.781 s): 117.771 RLU
RLU (Time 38.781 s): 121.11 RLU
RLU (Time 40.781 s): 113.511 RLU
RLU (Time 42.781 s): 141.314 RLU
RLU (Time 44.781 s): 160.969 RLU
RLU (Time 46.781 s): 200.571 RLU
RLU (Time 48.781 s): 228.76 RLU
RLU (Time 50.781 s): 238.054 RLU
RLU (Time 52.781 s): 279.774 RLU
RLU (Time 54.781 s): 314.942 RLU
RLU (Time 56.781 s): 299.791 RLU
RLU (Time 58.781 s): 350.668 RLU
RLU (Time 60.781 s): 363.761 RLU
RLU (Time 62.781 s): 387.64 RLU
RLU (Time 64.781 s): 388.62 RLU
RLU (Time 66.781 s): 424.095 RLU
RLU (Time 68.781 s): 419.549 RLU
RLU (Time 70.781 s): 443.973 RLU
RLU (Time 72.781 s): 413.221 RLU
RLU (Time 74.781 s): 419.192 RLU
RLU (Time 76.781 s): 460.126 RLU
RLU (Time 78.781 s): 478.685 RLU
RLU (Time 80.781 s): 487.49 RLU
RLU (Time 82.781 s): 529.97 RLU
RLU (Time 84.781 s): 535.792 RLU
RLU (Time 86.781 s): 528.828 RLU
RLU (Time 88.781 s): 565.311 RLU
RLU (Time 90.781 s): 546.96 RLU
RLU (Time 92.781 s): 541.782 RLU
RLU (Time 94.781 s): 524.334 RLU
RLU (Time 96.781 s): 507.8 RLU
RLU (Time 98.781 s): 505.738 RLU
RLU (Time 100.781 s): 510.912 RLU
RLU (Time 102.781 s): 470.239 RLU
RLU (Time 104.781 s): 497.869 RLU
RLU (Time 106.781 s): 500.977 RLU
RLU (Time 108.781 s): 492.243 RLU
RLU (Time 110.781 s): 525.903 RLU
RLU (Time 112.781 s): 501.6 RLU
RLU (Time 114.781 s): 517.173 RLU
RLU (Time 116.781 s): 514.443 RLU
RLU (Time 118.781 s): 515.53 RLU
RLU (Time 120.781 s): 497.17 RLU
RLU (Time 122.781 s): 525.829 RLU
RLU (Time 124.781 s): 530.193 RLU
RLU (Time 126.781 s): 525.829 RLU
RLU (Time 128.781 s): 520.174 RLU
RLU (Time 130.781 s): 519.565 RLU
RLU (Time 132.781 s): 551.214 RLU
RLU (Time 134.781 s): 551.693 RLU
RLU (Time 136.781 s): 519.874 RLU
RLU (Time 137.578 s): 524.174 RLU
RLU (Time 143.578 s): 517.004 RLU
RLU (Time 149.578 s): 507.474 RLU
RLU (Time 155.578 s): 522.299 RLU
RLU (Time 161.578 s): 476.762 RLU
RLU (Time 167.578 s): 499.828 RLU
RLU (Time 173.578 s): 455.735 RLU
RLU (Time 179.578 s): 459.26 RLU
RLU (Time 185.578 s): 429.678 RLU
RLU (Time 191.578 s): 409.042 RLU
RLU (Time 197.578 s): 394.775 RLU
RLU (Time 203.578 s): 421.467 RLU
RLU (Time 209.578 s): 379.61 RLU
RLU (Time 215.578 s): 405.275 RLU
RLU (Time 221.578 s): 372.014 RLU
RLU (Time 227.578 s): 339.525 RLU
RLU (Time 233.578 s): 348.807 RLU
RLU (Time 239.578 s): 313.214 RLU
RLU (Time 245.578 s): 300.083 RLU
RLU (Time 293.578 s): 317.696 RLU
RLU (Time 299.578 s): 309.428 RLU
RLU (Time 305.578 s): 321.267 RLU
RLU (Time 311.578 s): 329.776 RLU
RLU (Time 317.578 s): 375.676 RLU
RLU (Time 323.578 s): 369.197 RLU
RLU (Time 329.578 s): 335.975 RLU
RLU (Time 335.578 s): 363.52 RLU
RLU (Time 341.578 s): 327.284 RLU
RLU (Time 347.578 s): 338.669 RLU
RLU (Time 353.578 s): 324.825 RLU
RLU (Time 359.578 s): 287.782 RLU
Activation threshold concentration Tas2r105 (p < 0.01 vs empty vector): 300 µM

From publication PMC10247784, “Physiological activation of human and mouse bitter taste receptors by bile acids” (Communications Biology, 2023)
